One test relates to C. auris 8977. The experiment in a line: Candida panel MIC, serial dilution in 96-well plates. Format: cell-based, Candida auris. The following applies: Candidozyma auris, 8977, read-out: MIC C. auris 8977. The procedure:
(§1) The minimum inhibitory concentration of test compounds were determined in a panel of Candida species (see Table 4 below), using the a serial dilution method in 96-well plates using the following protocol.
(§2) Starter cultures of fungal strains to be tested were grown in 3 mL of RPMI 2% glucose media incubated at 37° C. with shaking at 200 rpm overnight. The culture media used was 900 mL H2O; 10.4 g RPMI 1640 (with L-glutamine and a pH indicator but without bicarbonate); 34.5 g MOPS and 18 g glucose. The pH of the media was adjusted to 7.0 with 1 M sodium hydroxide.
(§3) Solutions of the compound to be tested were prepared by dissolving the compound in DMSO and subsequently into media to the desired concentrations. […] The last two rows of each plate were control rows containing the culture media alone and the media plus fungi.
(§4) The fungi starter cultures were diluted 1:10 in water in cuvettes. This was then further diluted to an optical density (OD600) of 0.01 in media. 100 μL of the fungi was added to each well giving a starting concentration of fungus of 0.5-5×10^5/mL. One species of fungus was used on each plate. The plates were then held at 37° C. for 24 hours.
(§5) A plate reader was used to measure growth in each well at OD530 nm and the MIC was determined for each test compound. The MIC is defined as the lowest concentration giving rise to inhibition of ≥50% of that of the drug-free control well containing the fungus and media.
(§6) The Candida auris strains shown in Table 7 were either taken from the National Collection of Pathogenic Fungi (NCPF) or collected as part of ongoing surveillance studies. The strains were characterised as follows.

Another test relates to C. auris 8971. Described as above. Format: cell-based, Candida auris. The note with it: Candidozyma auris, 8971, read-out: MIC C. auris 8971. The procedure:
as §1, §2, §3, §4, §5, §6

A further test relates to C. auris 8984. Described as above. Format: cell-based, Candida auris. The following applies: Candidozyma auris, 8984, read-out: MIC C. auris 8984. The procedure: as §1, §2, §3, §4, §5, §6
Another test relates to Candida auris TDG2506. The experiment in a line: microbe, parasite or virus in culture. Type of test: cell-based. The following applies: Candidozyma auris, TDG2506, read-out: MIC C. auris 2506. The procedure:
as §1, §2, §3, §4, §5, §6

The test system of another test is Candida auris TDG2211. The experiment in a line: microbe, parasite or virus in culture. Format: cell-based. The following applies: Candidozyma auris, TDG2211, read-out: MIC C. auris 2211. As to the method: as §1, §2, §3, §4, §5, §6

Values after ≈ are worked out from the molar mass of the structure shown. Some results are limits rather than exact numbers.

For the compound `OC(CN1CCC(Nc2ccc(OCCN3CCOCC3)cc2)CC1)(Cn1cncn1)c1ccc(F)cc1F` (stereo not shown) [Compound number 6, 2-(2,4-Difluorophenyl)-1-(4-((4-(2-morpholinoethoxy)phenyl)amino)piperidin-1-yl)-3-(1H-1,2,4-triazol-1-yl)propan-2-ol], the MIC in the test with C. auris 8977 was 0.06 µg/mL (≈ 0.111 µM); in the test with C. auris 8971, 0.03 µg/mL (≈ 0.0553 µM); in the test with C. auris 8984, 0.125 µg/mL (≈ 0.23 µM); with Candida auris TDG2506, 0.25 µg/mL (≈ 0.461 µM); in the test on Candida auris TDG2211 it was 0.25 µg/mL (≈ 0.461 µM).
`OC(CN1CCC(Nc2ccc(Cc3ccccc3)cc2)CC1)(Cn1cncn1)c1ccc(F)cc1F` (stereo not shown) [Compound number 11, 1-(4-((4-benzylphenyl)amino)piperidin-1-yl)-2-(2,4-difluorophenyl)-3-(1H-1,2,4-triazol-1-yl)propan-2-ol]: the MIC in the test with C. auris 8977 was no more than 0.125 µg/mL; with C. auris 8971 it was no more than 0.125 µg/mL; in the test on C. auris 8984 it was 0.125 µg/mL (≈ 0.248 µM); in the test with Candida auris TDG2506 it was 0.125 µg/mL (≈ 0.248 µM); with Candida auris TDG2211, no more than 0.125 µg/mL.
Take `OC(CN1CCC(N2CCC(Nc3ccc(Cc4ccccc4)cc3)CC2)CC1)(Cn1cncn1)c1ccc(F)cc1F` (stereo not shown) [Compound number 12, 1-(4-((4-benzylphenyl)amino)-[1,4′-bipiperidin]-1′-yl)-2-(2,4-difluorophenyl)-3-(1H-1,2,4-triazol-1-yl)propan-2-ol]: the MIC in the test with C. auris 8977, in the test with C. auris 8971, with C. auris 8984, in the test with Candida auris TDG2506 and in the test with Candida auris TDG2211 was no more than 0.125 µg/mL in each case.
For the compound `OC(CN1CCC2(CCC(Nc3ccc(Cc4ccccc4)cc3)CC2)C1)(Cn1cncn1)c1ccc(F)cc1F` (stereo not shown) [Compound number 13, 1-(8-((4-benzylphenyl)amino)-2-azaspiro[4.5]decan-2-yl)-2-(2,4-difluorophenyl)-3-(1H-1,2,4-triazol-1-yl)propan-2-ol], the MIC in the test on C. auris 8977 is no more than 0.125 µg/mL; with C. auris 8971, no more than 0.125 µg/mL; in the test with C. auris 8984, no more than 0.003 µg/mL; in the test on Candida auris TDG2506 it was no more than 0.125 µg/mL; with Candida auris TDG2211, no more than 0.125 µg/mL.
Turning to `OC(CN1CCC2(CCC(Nc3ccc(OCCN4CCOCC4)cc3)CC2)C1)(Cn1cncn1)c1ccc(F)cc1F` (stereo not shown) [Compound number 87, 2-(2,4-difluorophenyl)-1-(8-((4-(2-morpholinoethoxy)phenyl)amino)-2-azaspiro[4.5]decan-2-yl)-3-(1H-1,2,4-triazol-1-yl)propan-2-ol], the MIC with C. auris 8977 came to 0.25 µg/mL (≈ 0.419 µM); in the test with C. auris 8971, 0.25 µg/mL (≈ 0.419 µM); in the test with C. auris 8984, 0.25 µg/mL (≈ 0.419 µM); with Candida auris TDG2506, 0.125 µg/mL (≈ 0.209 µM); with Candida auris TDG2211, 0.125 µg/mL (≈ 0.209 µM).

The record behind these values is patent US20240246920A1, “TRIAZOLE DERIVATIVES WITH ANTIFUNGAL ACTIVITY” (King's College London, priority 2020, published 2024).
